In patent US10765114B2, “4-amino-6-(pyridyl and 2-substitutedphenyl)-picolinates and 6-amino-2-(pyridyl and 2-substitutedphenyl)-pyrimidine-4-carboxylates and their use as herbicides” (Dow AgroSciences LLC, priority 2013, dated 2020):

test system: Key Broadleaf Weed and Crop Species; test: Post-Emergent Test II (Table 5); format: in vivo; conditions: Abutilon theophrasti, post-emergence, 336 h, ABUTH: velvetleaf (Abutilon theophrasti), application rate 70 (kg ai/ha; footnote: g ai/ha), read-out: Visual Growth Reduction (%) 14 Days After Application ABUTH
Outline: (§1)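 Post-emergence greenhouse spray, 1st-2nd true leaf stage; track sprayer, 187 L/ha; acetone/DMSO stock diluted in aqueous acetone/IPA/DMSO with Atplus 411F and Triton X-155; rates 1× to 1/16×; subirrigated; visual injury 0 (none) to 100% (complete kill) at 14 days.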

Row | SMILES | pest or weed control at 70 g/ha [%]
1 | COC(=O)c1nc(-c2ccc(Cl)nc2Cl)cc(N)c1Cl [Compound 15, methyl 4-amino-2′,5,6′-trichloro-[2,3′-bipyridine]-6-carboxylate] | 75 to 84

same assay, conditions: Abutilon theophrasti, post-emergence, 336 h, ABUTH: velvetleaf (Abutilon theophrasti), application rate 140 (kg ai/ha; footnote: g ai/ha), read-out: Visual Growth Reduction (%) 14 Days After Application ABUTH

Row | SMILES | pest or weed control at 140 g/ha [%]
2 | COC(=O)c1nc(-c2ccc(Cl)nc2Cl)cc(N)c1Cl [Compound 15, methyl 4-amino-2′,5,6′-trichloro-[2,3′-bipyridine]-6-carboxylate] | 85 to 94

same assay, conditions: Amaranthus retroflexus, post-emergence, 336 h, AMARE: redroot pigweed (Amaranthus retroflexus), application rate 70 (kg ai/ha; footnote: g ai/ha), read-out: Visual Growth Reduction (%) 14 Days After Application AMARE

Row | SMILES | pest or weed control at 70 g/ha [%]
3 | COC(=O)c1nc(-c2ccc(Cl)nc2Cl)cc(N)c1Cl [Compound 15, methyl 4-amino-2′,5,6′-trichloro-[2,3′-bipyridine]-6-carboxylate] | 95 to 100

same assay, conditions: Amaranthus retroflexus, post-emergence, 336 h, AMARE: redroot pigweed (Amaranthus retroflexus), application rate 140 (kg ai/ha; footnote: g ai/ha), read-out: Visual Growth Reduction (%) 14 Days After Application AMARE

Row | SMILES | pest or weed control at 140 g/ha [%]
4 | COC(=O)c1nc(-c2ccc(Cl)nc2Cl)cc(N)c1Cl [Compound 15, methyl 4-amino-2′,5,6′-trichloro-[2,3′-bipyridine]-6-carboxylate] | 95 to 100

same assay, conditions: Brassica napus, post-emergence, 336 h, BRSSS: oilseed rape, canola (Brassica napus), application rate 70 (kg ai/ha; footnote: g ai/ha), read-out: Visual Growth Reduction (%) 14 Days After Application BRSSS

Row | SMILES | pest or weed control at 70 g/ha [%]
5 | COC(=O)c1nc(-c2ccc(Cl)nc2Cl)cc(N)c1Cl [Compound 15, methyl 4-amino-2′,5,6′-trichloro-[2,3′-bipyridine]-6-carboxylate] | 60 to 74

same assay, conditions: Brassica napus, post-emergence, 336 h, BRSSS: oilseed rape, canola (Brassica napus), application rate 140 (kg ai/ha; footnote: g ai/ha), read-out: Visual Growth Reduction (%) 14 Days After Application BRSSS

Row | SMILES | pest or weed control at 140 g/ha [%]
6 | COC(=O)c1nc(-c2ccc(Cl)nc2Cl)cc(N)c1Cl [Compound 15, methyl 4-amino-2′,5,6′-trichloro-[2,3′-bipyridine]-6-carboxylate] | 75 to 84

same assay, conditions: Chenopodium album, post-emergence, 336 h, CHEAL: lambsquarters (Chenopodium album), application rate 70 (kg ai/ha; footnote: g ai/ha), read-out: Visual Growth Reduction (%) 14 Days After Application CHEAL

Row | SMILES | pest or weed control at 70 g/ha [%]
7 | COC(=O)c1nc(-c2ccc(Cl)nc2Cl)cc(N)c1Cl [Compound 15, methyl 4-amino-2′,5,6′-trichloro-[2,3′-bipyridine]-6-carboxylate] | 85 to 94

same assay, conditions: Chenopodium album, post-emergence, 336 h, CHEAL: lambsquarters (Chenopodium album), application rate 140 (kg ai/ha; footnote: g ai/ha), read-out: Visual Growth Reduction (%) 14 Days After Application CHEAL

Row | SMILES | pest or weed control at 140 g/ha [%]
8 | COC(=O)c1nc(-c2ccc(Cl)nc2Cl)cc(N)c1Cl [Compound 15, methyl 4-amino-2′,5,6′-trichloro-[2,3′-bipyridine]-6-carboxylate] | 85 to 94

same assay, conditions: Euphorbia heterophylla, post-emergence, 336 h, EPHHL: wild poinsettia (Euphorbia heterophylla), application rate 70 (kg ai/ha; footnote: g ai/ha), read-out: Visual Growth Reduction (%) 14 Days After Application EPHHL

Row | SMILES | pest or weed control at 70 g/ha [%]
9 | COC(=O)c1nc(-c2ccc(Cl)nc2Cl)cc(N)c1Cl [Compound 15, methyl 4-amino-2′,5,6′-trichloro-[2,3′-bipyridine]-6-carboxylate] | 0 to 29

same assay, conditions: Euphorbia heterophylla, post-emergence, 336 h, EPHHL: wild poinsettia (Euphorbia heterophylla), application rate 140 (kg ai/ha; footnote: g ai/ha), read-out: Visual Growth Reduction (%) 14 Days After Application EPHHL

Row | SMILES | pest or weed control at 140 g/ha [%]
10 | COC(=O)c1nc(-c2ccc(Cl)nc2Cl)cc(N)c1Cl [Compound 15, methyl 4-amino-2′,5,6′-trichloro-[2,3′-bipyridine]-6-carboxylate] | 0 to 29

same assay, conditions: Helianthus annuus, post-emergence, 336 h, HELAN: sunflower (Helianthus annuus), application rate 70 (kg ai/ha; footnote: g ai/ha), read-out: Visual Growth Reduction (%) 14 Days After Application HELAN

Row | SMILES | pest or weed control at 70 g/ha [%]
11 | COC(=O)c1nc(-c2ccc(Cl)nc2Cl)cc(N)c1Cl [Compound 15, methyl 4-amino-2′,5,6′-trichloro-[2,3′-bipyridine]-6-carboxylate] | 85 to 94

same assay, conditions: Helianthus annuus, post-emergence, 336 h, HELAN: sunflower (Helianthus annuus), application rate 140 (kg ai/ha; footnote: g ai/ha), read-out: Visual Growth Reduction (%) 14 Days After Application HELAN

Row | SMILES | pest or weed control at 140 g/ha [%]
12 | COC(=O)c1nc(-c2ccc(Cl)nc2Cl)cc(N)c1Cl [Compound 15, methyl 4-amino-2′,5,6′-trichloro-[2,3′-bipyridine]-6-carboxylate] | 95 to 100

same assay, conditions: Viola tricolor, post-emergence, 336 h, VIOTR: wild pansy (Viola tricolor), application rate 70 (kg ai/ha; footnote: g ai/ha), read-out: Visual Growth Reduction (%) 14 Days After Application VIOTR

Row | SMILES | pest or weed control at 70 g/ha [%]
13 | COC(=O)c1nc(-c2ccc(Cl)nc2Cl)cc(N)c1Cl [Compound 15, methyl 4-amino-2′,5,6′-trichloro-[2,3′-bipyridine]-6-carboxylate] | 30 to 44

same assay, conditions: Viola tricolor, post-emergence, 336 h, VIOTR: wild pansy (Viola tricolor), application rate 140 (kg ai/ha; footnote: g ai/ha), read-out: Visual Growth Reduction (%) 14 Days After Application VIOTR

Row | SMILES | pest or weed control at 140 g/ha [%]
14 | COC(=O)c1nc(-c2ccc(Cl)nc2Cl)cc(N)c1Cl [Compound 15, methyl 4-amino-2′,5,6′-trichloro-[2,3′-bipyridine]-6-carboxylate] | 30 to 44

test system: Key Grass and Sedge Weeds as well as Grass Crops; test: Post-Emergent Test II (Table 6); format: in vivo; conditions: post-emergence, 336 h, CYPSS, 70 g ai/ha, 14 days after application, read-out: Visual Growth Reduction (%) 14 Days After Application CYPSS
Outline: as §1

Row | SMILES | pest or weed control at 70 g/ha [%]
15 | COC(=O)c1nc(-c2ccc(Cl)nc2Cl)cc(N)c1Cl [Compound 15, methyl 4-amino-2′,5,6′-trichloro-[2,3′-bipyridine]-6-carboxylate] | 0 to 29

same assay, conditions: post-emergence, 336 h, CYPSS, 140 g ai/ha, 14 days after application, read-out: Visual Growth Reduction (%) 14 Days After Application CYPSS

Row | SMILES | pest or weed control at 140 g/ha [%]
16 | COC(=O)c1nc(-c2ccc(Cl)nc2Cl)cc(N)c1Cl [Compound 15, methyl 4-amino-2′,5,6′-trichloro-[2,3′-bipyridine]-6-carboxylate] | 0 to 29

same assay, conditions: post-emergence, 336 h, DIGSA: crabgrass (Digitaria sanguinalis), 70 g ai/ha, 14 days after application, read-out: Visual Growth Reduction (%) 14 Days After Application DIGSA

Row | SMILES | pest or weed control at 70 g/ha [%]
17 | COC(=O)c1nc(-c2ccc(Cl)nc2Cl)cc(N)c1Cl [Compound 15, methyl 4-amino-2′,5,6′-trichloro-[2,3′-bipyridine]-6-carboxylate] | 0 to 29

same assay, conditions: post-emergence, 336 h, DIGSA: crabgrass (Digitaria sanguinalis), 140 g ai/ha, 14 days after application, read-out: Visual Growth Reduction (%) 14 Days After Application DIGSA

Row | SMILES | pest or weed control at 140 g/ha [%]
18 | COC(=O)c1nc(-c2ccc(Cl)nc2Cl)cc(N)c1Cl [Compound 15, methyl 4-amino-2′,5,6′-trichloro-[2,3′-bipyridine]-6-carboxylate] | 0 to 29

same assay, conditions: post-emergence, 336 h, ECHSS, 70 g ai/ha, 14 days after application, read-out: Visual Growth Reduction (%) 14 Days After Application ECHSS

Row | SMILES | pest or weed control at 70 g/ha [%]
19 | COC(=O)c1nc(-c2ccc(Cl)nc2Cl)cc(N)c1Cl [Compound 15, methyl 4-amino-2′,5,6′-trichloro-[2,3′-bipyridine]-6-carboxylate] | 0 to 29

same assay, conditions: post-emergence, 336 h, ECHSS, 140 g ai/ha, 14 days after application, read-out: Visual Growth Reduction (%) 14 Days After Application ECHSS

Row | SMILES | pest or weed control at 140 g/ha [%]
20 | COC(=O)c1nc(-c2ccc(Cl)nc2Cl)cc(N)c1Cl [Compound 15, methyl 4-amino-2′,5,6′-trichloro-[2,3′-bipyridine]-6-carboxylate] | 0 to 29

same assay, conditions: post-emergence, 336 h, ORYSS (crop), 70 g ai/ha, 14 days after application, read-out: Visual Growth Reduction (%) 14 Days After Application ORYSS

Row | SMILES | pest or weed control at 70 g/ha [%]
21 | COC(=O)c1nc(-c2ccc(Cl)nc2Cl)cc(N)c1Cl [Compound 15, methyl 4-amino-2′,5,6′-trichloro-[2,3′-bipyridine]-6-carboxylate] | 0 to 29

same assay, conditions: post-emergence, 336 h, ORYSS (crop), 140 g ai/ha, 14 days after application, read-out: Visual Growth Reduction (%) 14 Days After Application ORYSS

Row | SMILES | pest or weed control at 140 g/ha [%]
22 | COC(=O)c1nc(-c2ccc(Cl)nc2Cl)cc(N)c1Cl [Compound 15, methyl 4-amino-2′,5,6′-trichloro-[2,3′-bipyridine]-6-carboxylate] | 0 to 29

same assay, conditions: post-emergence, 336 h, SETFA: giant foxtail (Setaria faberi), 70 g ai/ha, 14 days after application, read-out: Visual Growth Reduction (%) 14 Days After Application SETFA

Row | SMILES | pest or weed control at 70 g/ha [%]
23 | COC(=O)c1nc(-c2ccc(Cl)nc2Cl)cc(N)c1Cl [Compound 15, methyl 4-amino-2′,5,6′-trichloro-[2,3′-bipyridine]-6-carboxylate] | 0 to 29

same assay, conditions: post-emergence, 336 h, SETFA: giant foxtail (Setaria faberi), 140 g ai/ha, 14 days after application, read-out: Visual Growth Reduction (%) 14 Days After Application SETFA

Row | SMILES | pest or weed control at 140 g/ha [%]
24 | COC(=O)c1nc(-c2ccc(Cl)nc2Cl)cc(N)c1Cl [Compound 15, methyl 4-amino-2′,5,6′-trichloro-[2,3′-bipyridine]-6-carboxylate] | 0 to 29

same assay, conditions: post-emergence, 336 h, SORVU: grain sorghum (Sorghum vulgare), 70 g ai/ha, 14 days after application, read-out: Visual Growth Reduction (%) 14 Days After Application SORVU

Row | SMILES | pest or weed control at 70 g/ha [%]
25 | COC(=O)c1nc(-c2ccc(Cl)nc2Cl)cc(N)c1Cl [Compound 15, methyl 4-amino-2′,5,6′-trichloro-[2,3′-bipyridine]-6-carboxylate] | 0 to 29

same assay, conditions: post-emergence, 336 h, SORVU: grain sorghum (Sorghum vulgare), 140 g ai/ha, 14 days after application, read-out: Visual Growth Reduction (%) 14 Days After Application SORVU

Row | SMILES | pest or weed control at 140 g/ha [%]
26 | COC(=O)c1nc(-c2ccc(Cl)nc2Cl)cc(N)c1Cl [Compound 15, methyl 4-amino-2′,5,6′-trichloro-[2,3′-bipyridine]-6-carboxylate] | 0 to 29

same assay, conditions: post-emergence, 336 h, TRZSS (crop), 70 g ai/ha, 14 days after application, read-out: Visual Growth Reduction (%) 14 Days After Application TRZSS

Row | SMILES | pest or weed control at 70 g/ha [%]
27 | COC(=O)c1nc(-c2ccc(Cl)nc2Cl)cc(N)c1Cl [Compound 15, methyl 4-amino-2′,5,6′-trichloro-[2,3′-bipyridine]-6-carboxylate] | 0 to 29

same assay, conditions: post-emergence, 336 h, TRZSS (crop), 140 g ai/ha, 14 days after application, read-out: Visual Growth Reduction (%) 14 Days After Application TRZSS

Row | SMILES | pest or weed control at 140 g/ha [%]
28 | COC(=O)c1nc(-c2ccc(Cl)nc2Cl)cc(N)c1Cl [Compound 15, methyl 4-amino-2′,5,6′-trichloro-[2,3′-bipyridine]-6-carboxylate] | 0 to 29

same assay, conditions: post-emergence, 336 h, ZEAMX: maize, corn (Zea mays), 70 g ai/ha, 14 days after application, read-out: Visual Growth Reduction (%) 14 Days After Application ZEAMX

Row | SMILES | pest or weed control at 70 g/ha [%]
29 | COC(=O)c1nc(-c2ccc(Cl)nc2Cl)cc(N)c1Cl [Compound 15, methyl 4-amino-2′,5,6′-trichloro-[2,3′-bipyridine]-6-carboxylate] | 0 to 29

same assay, conditions: post-emergence, 336 h, ZEAMX: maize, corn (Zea mays), 140 g ai/ha, 14 days after application, read-out: Visual Growth Reduction (%) 14 Days After Application ZEAMX

Row | SMILES | pest or weed control at 140 g/ha [%]
30 | COC(=O)c1nc(-c2ccc(Cl)nc2Cl)cc(N)c1Cl [Compound 15, methyl 4-amino-2′,5,6′-trichloro-[2,3′-bipyridine]-6-carboxylate] | 0 to 29

test system: not given; test: not given; conditions: not given

Row | melting point [°C] | SMILES
31 | 231 | COC(=O)c1nc(-c2ccc(Cl)nc2Cl)cc(N)c1Cl [Compound 15, methyl 4-amino-2′,5,6′-trichloro-[2,3′-bipyridine]-6-carboxylate]
